Assay results from ChEMBL document CHEMBL1146745, “Studies on anti-Helicobacter pylori agents. Part 3: A novel, efficacious cephem derivative, FR193879” (Bioorg Med Chem Lett, 2004).

How the values were obtained:
[1] = target: Beta-lactamase TEM (Escherichia coli) (UniProt P62593); assay: Stability towards penicillinase was determined
[2] = target: Beta-lactamase TEM (Escherichia coli) (UniProt P62593); assay: Relative stability towards penicillinase was determined
[3] = target: Beta-lactamase TEM (Escherichia coli) (UniProt P62593); assay: Stability towards beta-lactamase was determined in penicillinase

NC(=O)Cc1csc(SC2=C(C(=O)O)N3C(=O)[C@@H](NC(=O)Cc4ccccc4)[C@H]3SC2)n1
Km [1]: 34.8 µg/mL | Ratio [2]: 9.38 | Vmax [3]: 1.18
